Among the data in patent publication US9221792B2, “N-(4-(azetidine-1-carbonyl) phenyl)-(hetero-) arylsulfonamide derivatives as pyruvate kinase M2 (PMK2) modulators” (AGIOS PHARMACEUTICALS, INC, priority 2010, dated 2015) are AC50 values, retold here.

SMILES strings stand for the structures.

Chain of PKM2 (P14618 whole entry): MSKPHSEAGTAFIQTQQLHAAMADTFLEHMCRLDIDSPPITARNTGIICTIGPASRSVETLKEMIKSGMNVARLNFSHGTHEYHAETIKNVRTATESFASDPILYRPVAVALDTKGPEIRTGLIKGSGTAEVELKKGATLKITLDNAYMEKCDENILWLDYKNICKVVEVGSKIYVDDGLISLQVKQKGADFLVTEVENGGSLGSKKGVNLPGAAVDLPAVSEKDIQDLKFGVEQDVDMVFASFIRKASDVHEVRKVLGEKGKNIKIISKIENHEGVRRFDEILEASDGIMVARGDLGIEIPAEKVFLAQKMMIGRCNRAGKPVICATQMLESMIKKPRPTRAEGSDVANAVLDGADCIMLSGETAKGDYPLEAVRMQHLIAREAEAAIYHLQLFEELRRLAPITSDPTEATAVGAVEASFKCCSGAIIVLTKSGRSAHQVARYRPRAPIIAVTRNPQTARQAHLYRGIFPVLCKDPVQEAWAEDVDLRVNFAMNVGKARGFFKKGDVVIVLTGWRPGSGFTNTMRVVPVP

The first assay addresses PKM2 (Homo sapiens, UniProt P14618). Put plainly: PKM2 Assay (activation, LDH-coupled NADH absorbance at 340 nm).
Conditions: not given
In kind it is biochemical. Here is the method: • PKM2 stock enzyme solution was diluted in Reaction Buffer • 2 μL of compound was added into each well first, and then 180 μL of the Reaction Mix was added. • Reaction mixture with compound (without ADP) were incubated for 30 minutes at 4° C. • Plates were re-equilibrated to room temperature prior to adding 20 μL ADP to initiate the reaction. • Reaction progress was measured as changes in absorbance at 340 nm wavelength at room temperature (25° C.) Reaction Mix: PKM2 (50 ng/well), ADP (0.7 mM), PEP (0.15 mM), NADH (180 μM), LDH (2 units) in Reaction Buffer Reaction Buffer: 100 mM KCl, 50 mM Tris pH 7.5, 5 mM MgCl2, 1 mM DTT, 0.03% BSA.
Certain compounds of Formula I were tested in the above-described assay. A compound described herein may be tested for its ability to activate PKM2. The activation activity of these compounds is represented as an AC50 in Table 2 and throughout the application. […] “B” refers to an activator of PKM2 with an EC50 between 100 nM and 1 μM. “C” refers to an activator of PKM2 with an EC50 between 1 μM and 10 μM. “D” refers to an activator of PKM2 with an EC50 greater than 10 μM. “NA” refers to data that is not available.
In general, AC50 refers to the midpoint of the concentration-response curve, whichever way the signal moves. Turning to `O=C(Cc1ccccc1)OC1CN(C(=O)c2ccc(NS(=O)(=O)c3cccc4cccnc34)cc2)C1` [Compound 123, 1-(4-(Quinoline-8-sulfonamido)benzoyl)azetidin-3-yl 2-phenylacetate], the AC50 lay in the range of 100 to 1000 nM.

The same assay, now with this note: activation of PKM2; PKM2 50 ng/well, ADP 0.7 mM, PEP 0.15 mM, room temperature (25° C.); read-out: AC50.
Turning to `COc1ccccc1N(C)C1CN(C(=O)c2ccc(NS(=O)(=O)c3cccc4cccnc34)cc2)C1` [Compound 117], the half-maximal activity concentration (AC50) lay within 100 to 1000 nM.

As for `Cc1cc(C(=O)N2CC(NC(=O)NC(C)C)C2)ccc1NS(=O)(=O)c1cccc2cccnc12` [Compound 164], the half-maximal activity concentration (AC50) is 100 to 1000 nM.

Consider `O=C(c1ccc(NS(=O)(=O)c2cccc3cccnc23)c(F)c1)N1CC(Oc2ccccc2)C1` [Compound 107], for which the AC50 fell in the range of 100 to 1000 nM.

On to `CC(C)NC(=O)OC1CN(C(=O)c2ccc(NS(=O)(=O)c3cccc4cccnc34)cc2)C1` [Compound 135, 1-(4-(Quinoline-8-sulfonamido)benzoyl)azetidin-3-yl isopropylcarbamate], for which the AC50 fell in the range of 1000 to 10000 nM.

As for `CC1(O)CN(C(=O)c2ccc(NS(=O)(=O)c3cccc4cccnc34)cc2)C1` [Compound 126], the AC50 was more than 10000 nM.

With `O=C(c1ccc(NS(=O)(=O)c2cccc3cccnc23)cc1)N1CC(Nc2ccccc2)C1` [Compound 112], the concentration at half-maximal activity (AC50) was less than 100 nM.

Regarding `COc1ccccc1N(C)C1CN(C(=O)c2ccc(S(=O)(=O)Nc3cccc4cccnc34)cc2)C1` [Compound 128], the AC50 was more than 10000 nM.

Regarding `CN(Cc1ccccc1)C1CN(C(=O)c2ccc(NS(=O)(=O)c3cccc4cccnc34)cc2)C1` [Compound 146], the concentration at half-maximal activity (AC50) lay within 100 to 1000 nM.

Take `O=C(Nc1ccccn1)OC1CN(C(=O)c2ccc(NS(=O)(=O)c3cccc4cccnc34)cc2)C1` [Compound 161, 1-(4-(Quinoline-8-sulfonamido)benzoyl)azetidin-3-ylpyridin-2-ylcarbamate]: the AC50 lay within 1000 to 10000 nM.

In the case of `COc1cc(C(=O)N2CC(OC(=O)Nc3ccccn3)C2)ccc1NS(=O)(=O)c1cccc2cccnc12` [Compound 156, 1-(3-Methoxy-4-(quinoline-8-sulfonamido)benzoyl)azetidin-3-yl pyridin-2-ylcarbamate], the half-maximal activity concentration (AC50) was in the range of 100 to 1000 nM.

Regarding `O=C(c1ccc(NS(=O)(=O)c2cccc3cccnc23)cc1)N1CC(OCc2ccccc2)C1` [Compound 108, N-(4-(3-(benzyloxy)azetidine-1-carbonyl)phenyl)quinoline-8-sulfonamide], the concentration at half-maximal activity (AC50) fell in the range of 100 to 1000 nM.

As to `COc1cc(NS(=O)(=O)c2cccc3cccnc23)ccc1C(=O)N1CC(O)(c2ccccc2)C1` [Compound 138], the AC50 is less than 100 nM.

For the molecule `COc1ccccc1OC1CN(C(=O)c2ccc(NS(=O)(=O)c3cccc4cccnc34)cc2OC)C1` [Compound 150], the AC50 was less than 100 nM.

Consider `O=C(OC1CN(C(=O)c2ccc(NS(=O)(=O)c3cccc4cccnc34)cc2)C1)c1ccccn1` [Compound 102, 1-(4-(Quinoline-8-sulfonamido)benzoyl)azetidin-3-yl picolinate], for which the AC50 is 1000 to 10000 nM.

In the case of `Cc1cc(C(=O)N2CC(Nc3ccccc3)C2)ccc1NS(=O)(=O)c1cccc2cccnc12` [Compound 145], the AC50 is less than 100 nM.

Turning to `Cc1cc(C(=O)N2CC(Nc3ccccn3)C2)ccc1NS(=O)(=O)c1cccc2cccnc12` [Compound 151], the AC50 was less than 100 nM.

For `COc1ccccc1NC1CN(C(=O)c2ccc(NS(=O)(=O)c3cccc4cccnc34)cc2)C1` [Compound 113], the AC50 was less than 100 nM.

`Cc1cc(C(=O)N2CC(O)(c3ccccc3)C2)ccc1NS(=O)(=O)c1cccc2cccnc12` [Compound 137]: the AC50 fell in the range of 100 to 1000 nM.

Take `O=C(c1ccc(NS(=O)(=O)c2cccc3cccnc23)cc1)N1CC(NCc2ccccc2)C1` [Compound 147, N-(4-(3-(benzylamino)azetidine-1-carbonyl)phenyl)quinoline-8-sulfonamide]: the AC50 lay within 100 to 1000 nM.

Take `O=C(NC1CN(C(=O)c2ccc(NS(=O)(=O)c3cccc4cccnc34)c(F)c2)C1)c1ccccn1` [Compound 121, N-(1-(3-Fluoro-4-(quinoline-8-sulfonamido)benzoyl)azetidin-3-yl)picolinamide]: the AC50 fell in the range of 1000 to 10000 nM.

As for `CN(c1ccccc1)C1CN(C(=O)c2ccc(NS(=O)(=O)c3cccc4cccnc34)cc2)C1` [Compound 122], the AC50 was less than 100 nM.

`Cc1cc(C(=O)N2CC(O)(Cc3ccccc3)C2)ccc1NS(=O)(=O)c1cccc2cccnc12` [Compound 131, N-(4-(3-benzyl-3-hydroxyazetidine-1-carbonyl)-2-methylphenyl) quinoline-8-sulfonamide]: the AC50 is less than 100 nM.

Regarding `O=C(c1ccc(S(=O)(=O)Nc2cccc3cccnc23)cc1)N1CC(OCc2ccccc2)C1` [Compound 119], the AC50 is 1000 to 10000 nM.

With `O=C(c1ccc(NS(=O)(=O)c2cccc3cccnc23)cc1)N1CC(=Cc2ccccc2)C1` [Compound 165], the AC50 was 100 to 1000 nM.

Regarding `Cc1cc(C(=O)N2CC(OCc3ccccc3)C2)ccc1NS(=O)(=O)c1cccc2cccnc12` [Compound 120, N-(4-(3-(benzyloxy)azetidine-1-carbonyl)-2-methylphenyl)quinoline-8-sulfonamide], the AC50 was in the range of 100 to 1000 nM.

Take `COc1cc(NS(=O)(=O)c2cccc3cccnc23)ccc1C(=O)N1CC(O)(Cc2ccccc2)C1` [Compound 130, N-(4-(3-benzyl-3-hydroxyazetidine-1-carbonyl)-3-methoxyphenyl)quinoline-8-sulfonamide]: the AC50 is less than 100 nM.

In the case of `O=C(Nc1ccccn1)NC1CN(C(=O)c2ccc(NS(=O)(=O)c3cccc4cccnc34)cc2)C1` [Compound 160, N-(4-(3-(3-(Pyridin-2-yl)ureido)azetidine-1-carbonyl)phenyl)quinoline-8-sulfonamide], the AC50 was 100 to 1000 nM.

Regarding `C=CCNC(=O)NC1CN(C(=O)c2ccc(NS(=O)(=O)c3cccc4cccnc34)cc2)C1` [Compound 139, N-(4-(3-(3-Allylureido)azetidine-1-carbonyl)phenyl)quinoline-8-sulfonamide], the AC50 lay within 1000 to 10000 nM.

For `Cc1cc(C(=O)N2CC(OC(=O)c3ccccn3)C2)ccc1NS(=O)(=O)c1cccc2cccnc12` [Compound 110, 1-(3-Methyl-4-(quinoline-8-sulfonamido)benzoyl)azetidin-3-yl picolinate], the AC50 lay in the range of 100 to 1000 nM.

For the molecule `O=C(NC1CN(C(=O)c2ccc(S(=O)(=O)Nc3cccc4cccnc34)cc2)C1)c1ccccn1` [Compound 104], the half-maximal activity concentration (AC50) was more than 10000 nM.

For `COC1(Cc2ccccc2)CN(C(=O)c2ccc(NS(=O)(=O)c3cccc4cccnc34)cc2)C1` [Compound 105, N-(4-(3-benzyl-3-methoxyazetidine-1-carbonyl)phenyl)quinoline-8-sulfonamide], the AC50 lay within 100 to 1000 nM.

For `COc1ccccc1OC1CN(C(=O)c2ccc(NS(=O)(=O)c3cccc4cccnc34)cc2)C1` [Compound 129], the half-maximal activity concentration (AC50) is 100 to 1000 nM.

With `COc1ccccc1NC1CN(C(=O)c2ccc(NS(=O)(=O)c3cccc4cccnc34)c(C)c2)C1` [Compound 114], the AC50 is less than 100 nM.

As to `COc1ccccc1OC1CN(C(=O)c2ccc(NS(=O)(=O)c3cccc4cccnc34)c(F)c2)C1` [Compound 154], the AC50 lay within 100 to 1000 nM.

For `Cc1cc(C(=O)N2CC(OC(=O)Nc3ccccn3)C2)ccc1NS(=O)(=O)c1cccc2cccnc12` [Compound 155, 1-(3-Methyl-4-(quinoline-8-sulfonamido)benzoyl)azetidin-3-yl pyridin-2-ylcarbamate], the AC50 lay in the range of 100 to 1000 nM.

Turning to `O=C(NC1CN(C(=O)c2ccc(NS(=O)(=O)c3cccc4cccnc34)cc2)C1)c1ccccn1` [Compound 111, N-(1-(4-(Quinoline-8-sulfonamido)benzoyl)azetidin-3-yl)picolinamide], the AC50 lay in the range of 1000 to 10000 nM.

In the case of `O=C(c1ccc(NS(=O)(=O)c2cccc3cccnc23)c(F)c1)N1CC(Nc2ccccc2)C1` [Compound 118], the AC50 was in the range of 100 to 1000 nM.

Regarding `O=C(c1ccc(NS(=O)(=O)c2cccc3cccnc23)cc1)N1CC(O)(Cc2ccccc2)C1` [Compound 101, N-(4-(3-benzyl-3-hydroxyazetidine-1-carbonyl)phenyl)quinoline-8-sulfonamide], the AC50 was less than 100 nM.

Regarding `Cc1cc(C(=O)N2CC(NC(=O)c3ccccn3)C2)ccc1NS(=O)(=O)c1cccc2cccnc12` [Compound 103, N-(1-(3-Methyl-4-(quinoline-8-sulfonamido)benzoyl)azetidin-3-yl)picolinamide], the AC50 was in the range of 100 to 1000 nM.

On to `COc1ccccc1NC1CN(C(=O)c2ccc(S(=O)(=O)Nc3cccc4cccnc34)cc2)C1` [Compound 116], for which the concentration at half-maximal activity (AC50) was more than 10000 nM.

In the case of `COc1cc(NS(=O)(=O)c2cccc3cccnc23)ccc1C(=O)N1CC(O)C1` [Compound 143], the AC50 is more than 10000 nM.

On to `O=C(Nc1ccccn1)OC1CN(C(=O)c2ccc(NS(=O)(=O)c3cccc4cccnc34)c(F)c2)C1` [Compound 162, 1-(3-Fluoro-4-(quinoline-8-sulfonamido)benzoyl)azetidin-3-yl pyridin-2-ylcarbamate], for which the AC50 was more than 10000 nM.

As to `Cc1cc(C(=O)N2CC(C)(O)C2)ccc1NS(=O)(=O)c1cccc2cccnc12` [Compound 144], the AC50 is 1000 to 10000 nM.

For the molecule `COc1cc(NS(=O)(=O)c2cccc3cccnc23)ccc1C(=O)N1CC(C)(O)C1` [Compound 127], the AC50 lay in the range of 1000 to 10000 nM.

Consider `COc1ccccc1NC1CN(C(=O)c2ccc(NS(=O)(=O)c3cccc4cccnc34)c(F)c2)C1` [Compound 115], for which the AC50 is 100 to 1000 nM.
